The target in this test is IRAK4 kinase (Homo sapiens (Human), UniProt Q9NWZ3). Kind of test: IRAK4 Kinase Inhibition Assay (Cisbio HTRF KinEASE-STK S1 kit). The class given is biochemical. Conditions: IRAK4 kinase protein 10 nM, ATP 200 μM, STK Substrate 1-biotin 1 μM, 37° C. 2 h, read-out: IC50 (nM), IRAK4 kinase inhibitory activity. As to the method: Test Example 1. IRAK4 Kinase Inhibition Assay
In this assay, Cisbio HTRF KinEASE-STK SI kit (62S 1 PEB) was used, in which assay/detection buffer, STK Substrate 1-biotin, Streptavidin-XL665, STK Antibody-Cryptate were contained.
After adding compound/DMSO to a 384-well plate (PerkinElmer 6008280) using Echo 665, 5 μL of 2-fold reaction concentration of IRAK4 kinase protein (final concentration: 10 nM) dissolved with assay buffer [1 volume of 5× kinase buffer+20 mM magnesium chloride (Sigma) solution+1 mM DTT (Alfa Aesar) solution+4 volumes deionized water] was added, followed by sealing the shallow well plate, shaking and then centrifuging at 1000 rpm for 1 min, and incubating at room temperature for 5 min; then 5 μL of 2-fold reaction concentration of a 1:1 mixture of STK Substrate 1-biotin (final concentration: 1 μM) and ATP (Sigma A1852) (final concentration: 200 μM) formulated with assay buffer was added, followed by sealing the shallow well plate, shaking and then centrifuging at 1000 rpm for 1 min, and incubating at 37° C. for 2 h, and then 10 μL of a 1:1 mixture of Streptavidin-XL665 (final concentration: 62.5 nM) and STK-antibody-cryptate dissolved with detection buffer was added, followed by sealing the shallow well plate, shaking and then centrifuging at 1000 rpm for 1 min, and incubating at room temperature for 1 h, and thereafter reading the value at the wavelength of 620 nm/665 nm using a microplate reader. The data were analyzed using Prism 9.3 software, and the IC50 value of IRAK4 kinase inhibition was fitted using a four parameter Logistic equation.

For orientation: IC50 means the concentration at which inhibition is half-maximal.

Structures are written as SMILES. Counter-ions that a name gives are not always drawn. Where only a bound is given, the exact number is not on record here.

Sequence of IRAK4 kinase (Q9NWZ3 whole entry): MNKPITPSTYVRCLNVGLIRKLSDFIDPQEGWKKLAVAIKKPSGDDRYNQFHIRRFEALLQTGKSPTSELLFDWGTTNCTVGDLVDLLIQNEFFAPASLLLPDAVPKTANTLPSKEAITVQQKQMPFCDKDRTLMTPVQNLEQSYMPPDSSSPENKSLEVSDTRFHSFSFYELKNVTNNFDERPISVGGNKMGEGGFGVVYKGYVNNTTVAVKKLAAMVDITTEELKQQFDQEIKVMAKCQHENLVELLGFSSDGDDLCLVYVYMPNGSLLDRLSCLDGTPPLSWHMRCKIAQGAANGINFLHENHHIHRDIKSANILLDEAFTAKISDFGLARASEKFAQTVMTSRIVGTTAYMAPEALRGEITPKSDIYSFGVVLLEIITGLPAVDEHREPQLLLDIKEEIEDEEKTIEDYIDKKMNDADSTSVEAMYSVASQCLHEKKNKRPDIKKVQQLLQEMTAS

For the compound `FC(F)c1nn(C2CCCCC2)cc1-n1cc(-c2cnn3ccc(N4C[C@H]5C[C@@H]4CO5)nc23)nn1` [Compound 1A, (1R,4R)-5-(3-(1-(1-cyclohexyl-3-(difluoromethyl)-1H-pyrazol-4-yl)-1H-1,2,3-triazol-4-yl]pyrazolo[1,5-a]pyrimidin-5-yl)-2-oxa-5-azabicyclo[2.2.1]heptane], the IC50 lay in the range of 100 to 1000 nM.
The figure for `N#Cc1cnc2c(-c3cn(-c4cn(C5CCCCC5)nc4C(F)F)nn3)cnn2c1` [Compound 3A, 3-(1-(1-cyclohexyl-3-(difluoromethyl)-1H-pyrazol-4-yl)-1H-1,2,3-triazol-4-yl) pyrazolo[1,5-a]pyrimidine-6-carbonitrile] is 100 to 1000 nM; for `FC(F)c1nn(C2CCCCC2)cc1-n1cc(-c2cnn3ccc(N4CCOCC4)nc23)nn1` [Compound 4A, 4-(3-(1-(1-cyclohexyl-3-(difluoromethyl)-1H-pyrazol-4-yl)-1H-1,2,3-triazol-4-yl)pyrazolo[1,5-a]pyrimidin-5-yl) morpholine] it is under 100 nM; for `N#Cc1cnc2c(ccn2-c2cn(-c3cn(C4CCCCC4)nc3C(F)F)nn2)c1` [Compound 43A, 1-(1-(1-cyclohexyl-3-(difluoromethyl)-1H-pyrazol-4-yl)-1H-1,2,3-triazol-4-yl]-1H-pyrrolo[2,3-b]pyridine-5-carbonitrile] it is 1000 to 5000 nM.
The figure for `FC(F)c1nn(C2CCCCC2)cc1-n1cc(-n2ccc3ccc(N4CCOCC4)nc32)nn1` [Compound 45A] is 1000 to 5000 nM; for `Cn1cc(-n2cc(-c3cnn4ccc(N5C[C@H]6C[C@@H]5CO6)nc34)nn2)c(C(F)F)n1` [Compound 46A] it is 1000 to 5000 nM.
The figure for `FC(F)c1nn(C2CCCCC2)cc1-n1cc(-c2cnn3cccnc23)nn1` [Compound 56A, 3-(1-(1-cyclohexyl-3-(difluoromethyl)-1H-pyrazol-4-yl)-1H-1,2,3-triazol-4-yl]pyrazolo[1,5-a]pyrimidine] is 1000 to 5000 nM; for `NC(=O)c1cnn2c(-c3cn(-c4cn(C5CCCCC5)nc4C(F)F)nn3)ccc2c1` [Compound 60A, 7-(1-(1-cyclohexyl-3-(difluoromethyl)-1H-pyrazol-4-yl)-1H-1,2,3-triazol-4-yl) pyrrolo[1,2-b]pyridazine-3-formamide] it is under 100 nM; for `O=C(O)c1cnn2c(-c3cn(-c4cn(C5CCCCC5)nc4C(F)F)nn3)ccc2c1` [Compound 61A, 7-(1-(1-cyclohexyl-3-(difluoromethyl)-1H-pyrazol-4-yl)-1H-1,2,3-triazol-4-yl]pyrrolo[1,2-b]pyridazine-3-carboxylic acid] it is 100 to 1000 nM.
For the compound `O=C(c1cnn2c(-c3cn(-c4cn(C5CCCCC5)nc4C(F)F)nn3)ccc2c1)N1CCNCC1` [Compound 64A, (7-(1-(1-cyclohexyl-3-(difluoromethyl)-1H-pyrazol-4-yl)-1H-1,2,3-triazol-4-yl]pyrrolo[1,2-b]pyridazin-3-yl) (piperazin-1-yl) methanone], the concentration for half-maximal inhibition (IC50) is 1000 to 5000 nM.
The same measure for `NC(=O)c1cnc2c(ccn2-c2cn(-c3cn(C4CCCCC4)nc3C(F)F)nn2)c1` [Compound 65A, 1-(1-(1-cyclohexyl-3-(difluoromethyl)-1H-pyrazol-4-yl)-1H-1,2,3-triazol-4-yl)-1H-pyrrolo[2,3-b]pyridine-5-formamide]: 100 to 1000 nM; for `O=C(O)c1cnc2c(ccn2-c2cn(-c3cn(C4CCCCC4)nc3C(F)F)nn2)c1` [Compound 66A, 1-(1-(1-cyclohexyl-3-(difluoromethyl)-1H-pyrazol-4-yl)-1H-1,2,3-triazol-4-yl)-1H-pyrrolo[2,3-b]pyridine-5-carboxylic acid]: 1000 to 5000 nM; for `O=C(NC1CCNC1)c1cnn2c(-c3cn(-c4cn(C5CCCCC5)nc4C(F)F)nn3)ccc2c1` (stereo not shown) [Compound 67A, 7-(1-(1-cyclohexyl-3-(difluoromethyl)-1H-pyrazol-4-yl)-1H-1,2,3-triazol-4-yl]-N-(pyrrolidin-3-yl)pyrrolo[1,2-b]pyridazine-3-formamide]: over 5000 nM.
The same measure for `O=C(NC1CNCC1(F)F)c1cnn2c(-c3cn(-c4cn(C5CCCCC5)nc4C(F)F)nn3)ccc2c1` (stereo not shown) [Compound 68A, 7-(1-(1-cyclohexyl-3-(difluoromethyl)-1H-pyrazol-4-yl)-1H-1,2,3-triazol-4-yl]-N-(4,4-difluoropyrrolidin-3-yl)pyrrolo[1,2-b]pyridazine-3-formamide]: 1000 to 5000 nM.
The figure for `FC(F)c1nn(C2CCNCC2)cc1-n1cc(-c2cnn3ccc(N4CCOCC4)nc23)nn1` [Compound 69A, 4-(3-(1-(3-(difluoromethyl)-1-(piperidin-4-yl)-1H-pyrazol-4-yl)-1,2,3-triazol-4-yl]pyrazolo[1,5-a]pyrimidin-5-yl) morpholine] is 100 to 1000 nM.
Regarding `C[C@@H]1C[C@@H](n2cc(-n3cc(-c4cnn5ccc(N6CCOCC6)nc45)nn3)c(C(F)F)n2)CCN1` [Compound 72A], the IC50 is under 100 nM.
Take `C[C@@H]1C[C@H](n2cc(-n3cc(-c4cnn5ccc(N6CCOCC6)nc45)nn3)c(C(F)F)n2)CCN1` [Compound 73A]: the 50% inhibitory concentration (IC50) is 100 to 1000 nM.
In the case of `C[C@H]1CC(n2cc(-n3cc(-c4cnn5ccc(N6CCOCC6)nc45)nn3)c(C(F)F)n2)CCN1` (stereo partly drawn) [Compound 79A, 4-(3-(1-(3-(difluoromethyl)-1-((2S)-2-methylpiperidin-4-yl)-1H-pyrazol-4-yl)-1,2,3-triazol-4-yl)pyrazolo[1,5-a]pyrimidin-5-yl) morpholine], the IC50 lay in the range of 100 to 1000 nM.
The same measure for `C[C@@H]1CC(n2cc(-n3cc(-c4cnn5ccc(N6CCOCC6)nc45)nn3)c(C(F)F)n2)CCN1` (stereo partly drawn) [Compound 80A, 4-(3-(3-difluoromethyl)-1-(2R)-2-methylpiperidin-4-yl)-1H-pyrazol-4-yl)-1H-1,2,3-triazol-4-yl)pyrazolo[1,5-a]pyrimidin-5-yl) morpholine hydrochloride]: 100 to 1000 nM.
The figure for `C[C@H]1COCCN1c1ccn2ncc(-c3cn(-c4cn(C5CCCCC5)nc4C(F)F)nn3)c2n1` [Compound 82A, (S)-4-(3-(1-(1-cyclohexyl-3-(difluoromethyl)-1H-pyrazol-4-yl)-1H-1,2,3-triazol-4-yl]pyrazolo[1,5-a]pyrimidin-5-yl)-3-methylmorpholine] is 100 to 1000 nM.
The figure for `C[C@H]1CN(c2ccn3ncc(-c4cn(-c5cn(C6CCCCC6)nc5C(F)F)nn4)c3n2)CCO1` [Compound 83A, (2S)-4-(3-{1-[1-cyclohexyl-3-(difluoromethyl)-1H-pyrazol-4-yl]-1H-1,2,3-triazol-4-yl}pyrazolo[1,5-a]pyrimidin-5-yl)-2-methylmorpholine] is 100 to 1000 nM.
Turning to `NC(=O)c1cnn2c(-c3cn(-c4cn(C5CCNCC5)nc4C(F)F)nn3)ccc2c1` [Compound 84A, 7-(1-(3-(difluoromethyl)-1-(piperidin-4-yl)-1H-pyrazol-4-yl)-1H-1,2,3-triazol-4-yl)pyrrolo[1,2-b]pyridazine-3-formamide], the IC50 lay within 100 to 1000 nM.
For `CC1(C)CC(n2cc(-n3cc(-c4cnn5ccc(N6CCOCC6)nc45)nn3)c(C(F)F)n2)CCN1` (stereo not shown) [Compound 85A, 4-(3-(1-(3-(difluoromethyl)-1-(2,2-dimethylpiperidin-4-yl)-1H-pyrazol-4-yl)-1,2,3-triazol-4-yl]pyrazolo[1,5-a]pyrimidin-5-yl) morpholine], the IC50 was under 100 nM.
The figure for `CC1(C)C[C@H](n2cc(-n3cc(-c4cnn5ccc(N6CCOCC6)nc45)nn3)c(C(F)F)n2)CCN1` [Compound 86A, (R)-4-(3-(1-(3-(difluoromethyl)-1-(2,2-dimethylpiperidin-4-yl)-1H-pyrazol-4-yl)-1,2,3-triazol-4-yl]pyrazolo[1,5-a]pyrimidin-5-yl) morpholine] is 100 to 1000 nM; for `CC1(C)C[C@@H](n2cc(-n3cc(-c4cnn5ccc(N6CCOCC6)nc45)nn3)c(C(F)F)n2)CCN1` [Compound 87A, (S)-4-(3-(1-(3-(difluoromethyl)-1-(2,2-dimethylpiperidin-4-yl)-1H-pyrazol-4-yl)-1,2,3-triazol-4-yl]pyrazolo[1,5-a]pyrimidin-5-yl) morpholine] it is 100 to 1000 nM.
The same measure for `CC1(C)COCCN1c1ccn2ncc(-c3cn(-c4cn([C@H]5CC[C@H](CO)CC5)nc4C(F)F)nn3)c2n1` [Compound 88A, ((1r,4r)-4-(3-(difluoromethyl)-4-(4-(5-(3,3-dimethylmorpholinyl)pyrazolo[1,5-a]pyrimidin-3-yl)-1H-1,2,3-triazol-1-yl)-1H-pyrazol-1-yl)cyclohexyl)methanol]: 100 to 1000 nM; for `CC1(C)CN(c2ccn3ncc(-c4cn(-c5cn(C6CCC(CO)CC6)nc5C(F)F)nn4)c3n2)CCO1` (stereo not shown) [Compound 89A, ((1r,4r)-4-(3-(difluoromethyl)-4-(4-(5-(2,2-dimethylmorpholinyl)pyrazolo[1,5-a]pyrimidin-3-yl)-1H-1,2,3-triazol-1-yl)-1H-pyrazol-1-ylcyclohexyl)methanol]: 100 to 1000 nM.
The figure for `OC[C@H]1CC[C@H](n2cc(-n3cc(-c4cnn5ccc(N6CC7(COC7)C6)nc45)nn3)c(C(F)F)n2)CC1` [Compound 90A, ((1r, 4r)-4-(4-(4-(5-(2-oxa-6-azaspiro[3.3]heptan-6-yl)pyrazolo[1,5-a]pyrimidin-3-yl)-1H-1,2,3-triazol-1-yl)-3-(difluoromethyl)-1H-pyrazol-1-yl]cyclohexyl)methanol] is 100 to 1000 nM.
